Measurements taken from patent publication US7875587B2, “Peptide analogues of GIP for treatment of diabetes, insulin resistance and obesity” (UUTECH Limited, priority 2004, dated 2011).
No end group written: not given here.

Key:
[1] = test system: obese diabetic ob/ob mice; assay: Acute in vivo effects of (Pro3)GIP in obese diabetic ob/ob mice; design: species or system mouse
Description: Acute in vivo effects of (Pro^3)GIP administration in obese diabetic ob/ob mice. Plasma glucose and insulin responses were evaluated using 8- to 12-week old obese diabetic ob/ob mice following intraperitoneal (i.p.) injection of native GIP, (Pro^3)GIP (25 nmol/kg body weight) or saline (0.9% (w/v) NaCl; control) immediately following the combined injection of GIP (25 nmol/kg body weight) with glucose (18 mmol/kg body weight). All test solutions were administered in a final volume of 8 ml/kg body weight. Blood samples were collected from the cut tip of the tail of conscious mice into chilled fluoride/heparin microcentrifuge tubes (Sarstedt, Numbrecht, Germany) immediately prior to injection and at 15, 30 and 60 minutes post injection. Blood samples were immediately centrifuged using a Beckman microcentrifuge (Beckman Instruments, UK) for 30 seconds at 13000 g and stored at −20° prior to glucose and insulin determinations.
Acute in vivo effects of (Pro^3)GIP on plasma glucose and insulin responses to feeding in obese diabetic ob/ob mice. Plasma glucose and insulin responses were evaluated using 8- to 12-week old ob/ob mice where food was withdrawn for an 18-hour period prior to intraperitoneal injection of saline (0.9% (w/v) NaCl; control) or (Pro^3)GIP (25 nmol/kg body weight). Following injection, the mice were allowed to re-feed for 15 minutes. Blood samples were collected from the cut tip of the tail of conscious mice into chilled fluoride/heparin microcentrifuge tubes (Sarstedt, Numbrecht, Germany) immediately prior to injection and at 15, 30, 60 and 120 minutes post injection. Blood samples were immediately centrifuged using a Beckman microcentrifuge (Beckman Instruments, UK) for 30 seconds at 13000 g and stored at −20° prior to glucose and insulin determinations.
Determination of HbA1c, plasma glucose and insulin concentrations. HbA1c was measured in whole blood by ion-exchange high-performance liquid chromatography using the Menari HA-8140 kit (BIOMEN, Berkshire, UK). Plasma glucose was assayed by an automated glucose oxidase procedure using a Beckman Glucose Analyzer II (Stevens, J. F., 1971, Clinica Chemica Acta 32:199-201) and plasma insulin was determined by RIA (Flatt, P. R. et al., 1981, Diabetologia 20:573-577). Incremental areas under plasma glucose and insulin curves (AUC) were calculated using a computer generated program (CAREA) employing the trapezoidal rule (Burington, R. S., 1973, Handbook of Mathematical Tables and Formulae, New York, McGraw Hill) with baseline subtraction.

human GIP receptor = biological target: T1, human GIP receptor (Homo sapiens, UniProt P48546); assay: Intracellular cyclic AMP production in GIP-receptor transfected CHL fibroblasts; format: cell-based
T1 construct: expressed in transfected cells; host or cells: Chinese hamster lung (CHL) fibroblasts, stably transfected
T1 sequence (P48546 22-466): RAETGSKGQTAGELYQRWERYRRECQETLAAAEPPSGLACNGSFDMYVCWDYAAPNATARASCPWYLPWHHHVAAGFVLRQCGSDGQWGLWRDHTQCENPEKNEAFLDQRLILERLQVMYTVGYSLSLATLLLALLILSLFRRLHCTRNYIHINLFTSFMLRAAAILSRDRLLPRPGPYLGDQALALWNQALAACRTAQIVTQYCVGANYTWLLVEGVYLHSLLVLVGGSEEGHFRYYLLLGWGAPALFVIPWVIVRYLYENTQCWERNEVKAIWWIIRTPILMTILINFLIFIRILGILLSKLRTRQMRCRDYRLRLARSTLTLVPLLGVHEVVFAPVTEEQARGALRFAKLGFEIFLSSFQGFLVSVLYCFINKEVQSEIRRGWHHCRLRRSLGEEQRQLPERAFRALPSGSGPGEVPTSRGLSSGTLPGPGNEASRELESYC
Description: In vitro biological activity. […] In brief, CHL cells were seeded into 12-well plates (Nünc, Roskilde, Denmark) at a density of 10^5 cells per well and allowed to grow for 48 hours before being loaded with tritiated adenine (2 μCi; TRK311; Amersham, Buckinghamshire, UK). The cells were then incubated at 37° C. for 6 hours in 1 ml DMEM supplemented with 0.5% (w/v) BSA and subsequently washed twice with HBS buffer (pH 7.4). […] The medium was subsequently removed and the cells lysed with 1 ml of 5% TCA containing 0.1 mmol/l unlabelled cyclic AMP and 0.1 mmol/l unlabelled ATP.

[2] = Degradation of GIP and analogues by human plasma (HPLC); format: in vitro ADME
Description: Degradation of GIP and Tyr^1-glucitol GIP by human plasma. […] […] The reactions were terminated by addition of 5 μl of TFA and the final volume adjusted to 1.0 ml using 0.1% v/v TFA/water. Samples were centrifuged (13,000 g, 5 minutes) and the supernatant applied to a C-18 Sep-Pak cartridge (Millipore-Waters) which was previously primed and washed with 0.1% (v/v) TFA/water. […] The volume was adjusted to 1.0 ml with 0.12% (v/v) TFA/water prior to HPLC purification.
HPLC analysis of degraded GIP and Tyr^1-glucitol GIP. […] Using 0.1% (v/v) TFA in 70% acetonitrile/H20, the concentration of acetonitrile in the eluting solvent was raised from 0% to 31.5% over 15 min, to 38.5% over 30 minutes and from 38.5% to 70% over 5 minutes, using linear gradients. The absorbance was monitored at 206 nm and peak areas evaluated using a model 2221 LKB integrator. Samples recovered manually were concentrated using a Speed-Vac concentrator.
Electrospray ionization-mass spectrometry (ESI-MS) was carried out as described in Example 2. Degradation of GIP and novel GIP analogues by DPP IV and human plasma was carried out as described in Example 2.

[3] = 25 nmol/kg i.p., 15 min re-feeding after 18 h fast
[4] = human, plasma, pH 7.8, % Intact peptide remaining after incubations with human plasma

With “YAPGTFISDYSIAMDKIHQQDFVNWLLAQKGKKNDWKHNITQ [(Pro^3)GIP]” the “antagonism of insulin-releasing action of GIP and improvement of glucose tolerance” value ([1]; 25 nmol/kg i.p. with GIP 25 nmol/kg and glucose 18 mmol/kg) was “completely antagonised”, the “glycemic excursion compared with glucose alone” value ([1]; 25 nmol/kg i.p. with GIP and glucose) was “worse than when glucose was administered alone” and the “glycemic excursion after feeding” value [1, 3] was “worsened”. For the same compound, the “insulin response to feeding” value [1, 3] was “decreased”.

For `CCCCCCCCCCCCCCCC(=O)NCCCC[C@H](NC(=O)[C@H](Cc1c[nH]c2ccccc12)NC(=O)[C@H](CC(=O)O)NC(=O)[C@H](CC(N)=O)NC(=O)[C@H](CCCCN)NC(=O)[C@H](CCCCN)NC(=O)CNC(=O)[C@H](CCCCN)NC(=O)[C@H](CCC(N)=O)NC(=O)[C@H](C)NC(=O)[C@H](CC(C)C)NC(=O)[C@H](CC(C)C)NC(=O)[C@H](Cc1c[nH]c2ccccc12)NC(=O)[C@H](CC(N)=O)NC(=O)[C@@H](NC(=O)[C@H](Cc1ccccc1)NC(=O)[C@H](CC(=O)O)NC(=O)[C@H](CCC(N)=O)NC(=O)[C@H](CCC(N)=O)NC(=O)[C@H](Cc1c[nH]cn1)NC(=O)[C@@H](NC(=O)[C@H](CCCCN)NC(=O)[C@H](CC(=O)O)NC(=O)[C@H](CCSC)NC(=O)[C@H](C)NC(=O)[C@@H](NC(=O)[C@H](CO)NC(=O)[C@H](Cc1ccc(O)cc1)NC(=O)[C@H](CC(=O)O)NC(=O)[C@H](CO)NC(=O)[C@@H](NC(=O)[C@H](Cc1ccccc1)NC(=O)[C@@H](NC(=O)CNC(=O)[C@H](CCC(=O)O)NC(=O)[C@H](C)NC(=O)[C@H](Cc1ccc(O)cc1)NC(C)=O)[C@@H](C)O)[C@@H](C)CC)[C@@H](C)CC)[C@@H](C)CC)C(C)C)C(=O)N[C@@H](Cc1c[nH]cn1)C(=O)N[C@@H](CC(N)=O)C(=O)N[C@H](C(=O)N[C@H](C(=O)N[C@@H](CCC(N)=O)C(=O)O)[C@@H](C)O)[C@@H](C)CC` [N-AcGIP(LysPAL^37)], the EC50 (human GIP receptor) was 13 nM.

With `CC[C@H](C)[C@H](NC(=O)[C@H](CO)NC(=O)[C@H](Cc1ccc(O)cc1)NC(=O)[C@H](CC(=O)O)NC(=O)[C@H](CO)NC(=O)[C@@H](NC(=O)[C@H](Cc1ccccc1)NC(=O)[C@@H](NC(=O)CNC(=O)[C@H](CCC(=O)O)NC(=O)[C@H](C)NC(=O)[C@@H](N)Cc1ccc(O)cc1)[C@@H](C)O)[C@@H](C)CC)C(=O)N[C@@H](C)C(=O)N[C@@H](CCSC)C(=O)N[C@@H](CC(=O)O)C(=O)N[C@@H](CCCCN)C(=O)N[C@H](C(=O)N[C@@H](Cc1c[nH]cn1)C(=O)N[C@@H](CCC(N)=O)C(=O)N[C@@H](CCC(N)=O)C(=O)N[C@@H](CC(=O)O)C(=O)N[C@@H](Cc1ccccc1)C(=O)N[C@H](C(=O)N[C@@H](CC(N)=O)C(=O)N[C@@H](Cc1c[nH]c2ccccc12)C(=O)N[C@@H](CC(C)C)C(=O)N[C@@H](CC(C)C)C(=O)N[C@@H](C)C(=O)N[C@@H](CCC(N)=O)C(=O)N[C@@H](CCCCN)C(=O)NCC(=O)N[C@@H](CCCCN)C(=O)N[C@@H](CCCCN)C(=O)N[C@@H](CC(N)=O)C(=O)N[C@@H](CC(=O)O)C(=O)N[C@@H](Cc1c[nH]c2ccccc12)C(=O)N[C@@H](CCCCN)C(=O)N[C@@H](Cc1c[nH]cn1)C(=O)N[C@@H](CC(N)=O)C(=O)N[C@H](C(=O)N[C@H](C(=O)N[C@@H](CCC(N)=O)C(=O)O)[C@@H](C)O)[C@@H](C)CC)C(C)C)[C@@H](C)CC` [GIP 1–42, reference compound] the “degradation by human plasma” value [2] was “readily metabolised”, the “plasma degradation” value [2] was “rapidly degraded” and the “% Intact peptide remaining after incubations with human plasma” value ([2]; human, plasma, 0 h) was 100%. For the same compound, the remaining at 2 h, 20 µg/ml [2, 4] was 52 ± 1%, the remaining at 4 h, 20 µg/ml [2, 4] was 23 ± 1% and the remaining at 8 h, 20 µg/ml [2, 4] was 0%.
